Measurements taken from ChEMBL document CHEMBL1131950, “Reversal of P-glycoprotein mediated multidrug resistance by novel anthranilamide derivatives” (Bioorg Med Chem Lett, 1999).

These compounds were tested on MDR (assay: Potency tested against multidrug resistance (MDR) cell lines expressing P-gp (P-glycoprotein)). Conditions: not given.
Type: functional, cell-based
Compound `COc1cc2c(cc1OC)CN(CCc1ccc(NC(=O)c3cc(OC)c(OC)cc3NC(=O)c3cnc4ccccc4c3)cc1)CC2` [TARIQUIDAR] has an EC50 of 16.3 nM. `COc1cc2c(cc1OC)CN(CCc1ccc(NC(=O)c3cc(F)ccc3NC(=O)c3cnc4ccccc4c3)cc1)CC2` was tested, and the EC50 was 27 nM. Work on `COc1cc2c(cc1OC)CN(CCc1ccc(NC(=O)c3ccccc3NC(=O)c3cnc4ccccc4n3)cc1)CC2` yielded an EC50 of 19 nM. `COc1cc2c(cc1OC)CN(CCc1ccc(NC(=O)c3ccccc3NC(=O)c3cnc4ccccc4c3)cc1)CC2` showed an EC50 of 30 nM.

The compounds below were run on EMT6 (assay: Reversal effect on the accumulation of [3H]- daunorubicin in mouse mammary carcinoma cell line EMT6/AR 1.0). Conditions: not given.
Type: functional, cell-based
Work on `COc1cc2c(cc1OC)CN(CCc1ccc(NC(=O)c3cc(OC)c(OC)cc3NC(=O)c3cnc4ccccc4c3)cc1)CC2` [TARIQUIDAR] yielded an IC50 of 38 nM.

Same assay, conditions: read-out: IC50
`COc1cc2c(cc1OC)CN(CCc1ccc(NC(=O)c3ccccc3NC(=O)c3cnccn3)cc1)CC2` gave an IC50 of 204 nM. `COc1cc2c(cc1OC)CN(CCc1ccc(NC(=O)c3ccccc3NC(=O)c3cc4ccccc4cn3)cc1)CC2` showed an IC50 of 4900 nM. Work on `COc1cc2c(cc1OC)CN(CCc1ccc(NC(=O)c3cccc(/C=c4\[nH]c(=O)/c(=C/c5ccccc5)n(C)c4=O)c3)cc1)CC2` yielded an IC50 of 220 nM. With `COc1cc2c(cc1OC)CN(CCc1ccc(NC(=O)c3ccccc3NC(=O)c3ccccn3)cc1)CC2` the IC50 was 680 nM. Work on `COc1ccc(CCn2c(-c3ccc(N(C)C)cc3)nc3ccccc3c2=O)cc1OC` yielded an IC50 of 5000 nM. `COc1cc2c(cc1OC)CN(CCc1ccc(NC(=O)c3cc(N(C)C)ccc3NC(=O)c3cnc4ccccc4c3)cc1)CC2` showed an IC50 of 293 nM. Compound `COc1cc2c(cc1OC)CN(CCc1ccc(NC(=O)c3cc(Cl)ccc3NC(=O)c3cnc4ccccc4c3)cc1)CC2` has an IC50 of 149 nM. `COc1cc2c(cc1OC)CN(CCc1ccc(NC(=O)c3ccccc3Sc3ccccc3)cc1)CC2` gave an IC50 of 2300 nM. Work on `COc1cc2c(cc1OC)CN(CCc1ccc(NC(=O)c3ccccc3NC(=O)c3ccc4ccccc4n3)cc1)CC2` yielded an IC50 of 790 nM. `COc1cc2c(cc1OC)CN(CCc1ccc(NC(=O)c3ccccc3NC(=O)c3ccsc3)cc1)CC2` gave an IC50 of 730 nM. `COc1cc2c(cc1OC)CN(CCc1ccc(NC(=O)c3cc(C)ccc3NC(=O)c3cnc4ccccc4c3)cc1)CC2` showed an IC50 of 220 nM. `COc1cc2c(cc1OC)CN(CCNC(=O)c1ccccc1NC(=O)c1ccc(C(C)C)cc1)CC2` was tested, and the IC50 was 1100 nM. `COc1cc2c(cc1OC)CN(CCc1ccc(NC(=O)c3ccccc3-c3ccccc3)cc1)CC2` gave an IC50 of 1700 nM. Compound `COc1cc2c(cc1OC)CN(CCc1ccc(NC(=O)c3ccc([N+](=O)[O-])cc3NC(=O)c3cnc4ccccc4c3)cc1)CC2` has an IC50 of 45 nM. For `COc1cc2c(cc1OC)CN(CCc1ccc(NC(=O)c3ccccc3NC(=O)c3ccc(C)nc3)cc1)CC2`, the IC50 was 67 nM. In the case of `COc1cc2c(cc1OC)CN(CCc1ccc(NC(=O)c3ccccc3NC(=O)c3ccc(C(C)C)cc3)cc1)CC2`, the IC50 is reported as 850 nM. Compound `COc1cc2c(cc1OC)CN(CCc1ccc(NC(=O)c3ccccc3NC(=O)c3cnc(C)cn3)cc1)CC2` has an IC50 of 67 nM. Compound `COc1cc2c(cc1OC)CN(CCc1ccc(NC(=O)c3ccc(Cl)cc3NC(=O)c3cnc4ccccc4c3)cc1)CC2` has an IC50 of 141 nM. With `COc1cc2c(cc1OC)CN(CCc1ccc(NC(=O)c3ccccc3NC(=O)c3ccccc3)cc1)CC2` the IC50 was 250 nM. `COc1cc2c(cc1OC)CN(CCc1ccc(NC(=O)c3ccccc3C(=O)c3ccccc3)cc1)CC2` was tested, and the IC50 was 1100 nM. Compound `COc1cc2c(cc1OC)CN(CCc1ccc(NC(=O)c3ccc(F)cc3NC(=O)c3cnc4ccccc4c3)cc1)CC2` has an IC50 of 38 nM. `COc1cc2c(cc1OC)CN(CCc1ccc(NC(=O)c3cc(F)ccc3NC(=O)c3cnc4ccccc4c3)cc1)CC2` gave an IC50 of 60 nM. `COc1cc2c(cc1OC)CN(CCNC(=O)c1ccccc1NC(=O)c1ccccc1)CC2` gave an IC50 of 6800 nM. Compound `COc1cc2c(cc1OC)CN(CCc1ccc(NC(=O)c3ccccc3NC(=O)c3cnc4ccccc4n3)cc1)CC2` has an IC50 of 92 nM. For `COc1cc2c(cc1OC)CN(CCc1ccc(NC(=O)c3ccccc3Oc3ccccc3)cc1)CC2`, the IC50 was 2700 nM. Work on `COc1cc2c(cc1OC)CN(CCNC(=O)c1ccccc1NC(=O)c1ccc(C3CCCCC3)cc1)CC2` yielded an IC50 of 1600 nM. `COc1cc2c(cc1OC)CN(CCNC(=O)c1ccccc1NC(=O)c1ccc(N(C)C)cc1)CC2` showed an IC50 of 2400 nM. `COc1cc2c(cc1OC)CN(CCc1ccc(NC(=O)c3ccccc3NC(=O)c3cnc4ccccc4c3)cc1)CC2` gave an IC50 of 87 nM. In the case of `COc1cc2c(cc1OC)CN(CCc1ccc(NC(=O)c3ccccc3NC(=O)c3cccnc3)cc1)CC2`, the IC50 is reported as 880 nM. `COc1cc2c(cc1OC)CN(CCc1ccc(NC(=O)c3ccccc3NC(=O)c3ccoc3)cc1)CC2` showed an IC50 of 920 nM. With `COc1cc2c(cc1OC)CN(CCc1ccc(NC(=O)c3ccccc3NC(=O)c3ccco3)cc1)CC2` the IC50 was 3300 nM.
